Assay results from the kinase profiling compilation of Christmann-Franck et al. (2016).

Tests used:
Assay in all cases: Caliper, Mobility shift assay off-chip
Conditions in all cases: compound 10.0 µM
[1] = target: ABL1 (human) (UniProt P00519)
[2] = target: AXL (human) (UniProt P30530)
[3] = target: CAMK1D (human) (UniProt Q8IU85)
[4] = target: CDK3 CCNE1 (human) (UniProt P24864+Q00526)
[5] = target: CLK3 (human) (UniProt P49761)
[6] = target: CSNK1D (human) (UniProt P48730)
[7] = target: CSNK1G1 (human) (UniProt Q9HCP0)
[8] = target: DAPK3 (human) (UniProt O43293)
[9] = target: DMPK (human) (UniProt Q09013)
[10] = target: EEF2K (human) (UniProt O00418)
[11] = system: EGFR (human), P00533 [L861Q]
[12] = target: EPHB4 (human) (UniProt P54760)
[13] = target: FER (human) (UniProt P16591)
[14] = target: FGR (human) (UniProt P09769)
[15] = target: FLT4 (human) (UniProt P35916)
[16] = target: GRK5 (human) (UniProt P34947)
[17] = target: ITK (human) (UniProt Q08881)
[18] = target: JAK3 JH1 JH2 (human) (UniProt P52333)
[19] = system: KIT (human), P10721 [V560G]
[20] = target: MAP3K5 (human) (UniProt Q99683)
[21] = target: MAPK9 (human) (UniProt P45984)
[22] = target: MARK1 (human) (UniProt Q9P0L2)
[23] = target: MELK (human) (UniProt Q14680)
[24] = target: NUAK1 (human) (UniProt O60285)
[25] = target: PAK6 (human) (UniProt Q9NQU5)
[26] = system: PDGFRA (human), P16234 [V561D]
[27] = target: PHKG2 (human) (UniProt P15735)
[28] = target: PLK2 (human) (UniProt Q9NYY3)
[29] = target: PRKCE (human) (UniProt Q02156)
[30] = target: PRKCZ (human) (UniProt Q05513)
[31] = target: PRKD2 (human) (UniProt Q9BZL6)
[32] = target: PRKG1 (human) (UniProt Q13976)
[33] = target: PTK2 (human) (UniProt Q05397)
[34] = target: PTK6 (human) (UniProt Q13882)
[35] = target: RPS6KA4 KD1 KD2 (human) (UniProt O75676)
[36] = target: RPS6KA6 KD1 KD2 (human) (UniProt Q9UK32)
[37] = target: STK11 (human) (UniProt Q15831)
[38] = target: SYK (human) (UniProt P43405)
[39] = target: TAOK2 (human) (UniProt Q9UL54)
[40] = target: TNK2 (human) (UniProt Q07912)
[41] = target: TSSK1B (human) (UniProt Q9BXA7)
Chain of TSSK1B (human) (Q9BXA7 whole entry, looked up): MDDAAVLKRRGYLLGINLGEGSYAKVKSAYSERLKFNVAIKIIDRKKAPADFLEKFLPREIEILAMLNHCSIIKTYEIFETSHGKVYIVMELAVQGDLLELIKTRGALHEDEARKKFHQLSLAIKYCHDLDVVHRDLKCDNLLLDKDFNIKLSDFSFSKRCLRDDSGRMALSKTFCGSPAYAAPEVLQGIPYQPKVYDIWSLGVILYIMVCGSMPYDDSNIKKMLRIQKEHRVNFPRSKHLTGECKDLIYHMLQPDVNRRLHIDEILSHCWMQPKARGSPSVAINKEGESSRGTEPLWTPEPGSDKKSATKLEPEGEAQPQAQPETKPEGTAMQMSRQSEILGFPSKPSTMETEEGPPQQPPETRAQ

Chain of PTK6 (human) (Q13882 whole entry, looked up): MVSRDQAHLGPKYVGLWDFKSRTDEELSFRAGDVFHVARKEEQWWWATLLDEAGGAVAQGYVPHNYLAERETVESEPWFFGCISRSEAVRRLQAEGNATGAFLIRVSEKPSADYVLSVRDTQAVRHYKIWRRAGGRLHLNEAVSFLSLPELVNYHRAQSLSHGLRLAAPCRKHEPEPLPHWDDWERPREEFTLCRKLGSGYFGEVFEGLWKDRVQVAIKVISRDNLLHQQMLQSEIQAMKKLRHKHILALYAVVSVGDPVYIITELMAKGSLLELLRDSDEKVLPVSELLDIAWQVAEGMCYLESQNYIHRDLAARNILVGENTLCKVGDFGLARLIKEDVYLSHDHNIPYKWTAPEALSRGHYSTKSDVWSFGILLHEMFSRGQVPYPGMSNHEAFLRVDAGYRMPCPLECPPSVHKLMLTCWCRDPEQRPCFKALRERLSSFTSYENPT
Chain of MAP3K5 (human) (Q99683 whole entry, looked up): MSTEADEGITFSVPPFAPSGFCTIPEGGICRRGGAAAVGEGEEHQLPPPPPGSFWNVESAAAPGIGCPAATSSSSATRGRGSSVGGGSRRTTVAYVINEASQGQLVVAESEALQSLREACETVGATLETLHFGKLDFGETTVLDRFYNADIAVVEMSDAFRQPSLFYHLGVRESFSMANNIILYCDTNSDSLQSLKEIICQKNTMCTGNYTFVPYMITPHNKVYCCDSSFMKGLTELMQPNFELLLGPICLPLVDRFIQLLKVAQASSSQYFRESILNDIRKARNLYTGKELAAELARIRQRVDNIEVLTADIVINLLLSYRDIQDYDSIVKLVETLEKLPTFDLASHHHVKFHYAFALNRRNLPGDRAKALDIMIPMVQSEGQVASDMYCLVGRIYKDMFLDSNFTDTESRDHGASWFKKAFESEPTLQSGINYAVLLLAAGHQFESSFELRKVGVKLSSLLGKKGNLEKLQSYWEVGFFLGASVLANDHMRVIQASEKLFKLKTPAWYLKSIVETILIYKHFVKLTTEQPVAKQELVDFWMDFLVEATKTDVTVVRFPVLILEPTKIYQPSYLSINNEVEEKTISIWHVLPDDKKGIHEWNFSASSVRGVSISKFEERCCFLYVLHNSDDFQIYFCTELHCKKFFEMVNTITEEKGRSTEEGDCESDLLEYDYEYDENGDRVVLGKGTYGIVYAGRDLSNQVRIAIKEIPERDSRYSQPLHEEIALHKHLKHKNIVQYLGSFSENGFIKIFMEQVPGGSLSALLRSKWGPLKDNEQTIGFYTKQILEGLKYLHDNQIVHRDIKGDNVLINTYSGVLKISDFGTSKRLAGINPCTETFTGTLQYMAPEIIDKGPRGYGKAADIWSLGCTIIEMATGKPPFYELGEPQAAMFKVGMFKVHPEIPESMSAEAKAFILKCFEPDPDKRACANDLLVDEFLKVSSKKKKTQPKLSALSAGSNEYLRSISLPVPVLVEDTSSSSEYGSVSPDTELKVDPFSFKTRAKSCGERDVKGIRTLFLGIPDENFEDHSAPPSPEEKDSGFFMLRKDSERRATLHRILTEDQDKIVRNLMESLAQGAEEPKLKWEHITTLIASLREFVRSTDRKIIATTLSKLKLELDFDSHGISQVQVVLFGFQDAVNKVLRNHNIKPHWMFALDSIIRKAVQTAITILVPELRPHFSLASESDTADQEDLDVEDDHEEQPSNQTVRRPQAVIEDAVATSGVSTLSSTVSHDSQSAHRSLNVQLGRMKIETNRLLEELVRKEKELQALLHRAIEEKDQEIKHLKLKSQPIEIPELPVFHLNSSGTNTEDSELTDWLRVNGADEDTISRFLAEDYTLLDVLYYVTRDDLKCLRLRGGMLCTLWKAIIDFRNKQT
Chain of DAPK3 (human) (O43293 whole entry, looked up): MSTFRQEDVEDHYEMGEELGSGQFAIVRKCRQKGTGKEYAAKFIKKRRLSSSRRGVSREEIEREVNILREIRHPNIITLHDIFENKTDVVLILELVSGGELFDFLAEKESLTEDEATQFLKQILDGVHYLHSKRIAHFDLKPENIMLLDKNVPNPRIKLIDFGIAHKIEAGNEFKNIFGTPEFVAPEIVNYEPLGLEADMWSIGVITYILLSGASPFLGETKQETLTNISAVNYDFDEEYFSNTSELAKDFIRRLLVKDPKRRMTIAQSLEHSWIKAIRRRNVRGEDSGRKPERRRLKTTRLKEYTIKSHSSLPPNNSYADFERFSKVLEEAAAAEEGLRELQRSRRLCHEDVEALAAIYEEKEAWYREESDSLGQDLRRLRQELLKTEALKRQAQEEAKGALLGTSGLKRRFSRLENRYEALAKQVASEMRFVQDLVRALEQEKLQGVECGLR
Chain of PRKCZ (human) (Q05513 whole entry, looked up): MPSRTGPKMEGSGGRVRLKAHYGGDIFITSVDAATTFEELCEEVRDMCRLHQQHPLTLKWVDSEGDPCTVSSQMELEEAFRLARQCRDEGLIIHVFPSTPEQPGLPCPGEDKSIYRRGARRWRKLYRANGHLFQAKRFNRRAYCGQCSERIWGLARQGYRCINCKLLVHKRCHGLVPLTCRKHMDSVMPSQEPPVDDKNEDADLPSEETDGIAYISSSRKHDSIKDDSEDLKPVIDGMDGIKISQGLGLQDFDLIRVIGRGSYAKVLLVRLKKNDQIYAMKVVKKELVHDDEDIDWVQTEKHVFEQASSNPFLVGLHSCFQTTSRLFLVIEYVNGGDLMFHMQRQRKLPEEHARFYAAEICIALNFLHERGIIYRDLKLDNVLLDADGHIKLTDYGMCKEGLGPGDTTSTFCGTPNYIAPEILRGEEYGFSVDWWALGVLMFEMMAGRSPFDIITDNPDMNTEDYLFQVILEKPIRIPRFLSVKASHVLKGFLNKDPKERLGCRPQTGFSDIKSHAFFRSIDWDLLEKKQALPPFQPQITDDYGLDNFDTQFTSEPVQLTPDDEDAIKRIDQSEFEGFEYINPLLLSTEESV
Chain of KIT (human), P10721 [V560G] (P10721 whole entry V560G, looked up): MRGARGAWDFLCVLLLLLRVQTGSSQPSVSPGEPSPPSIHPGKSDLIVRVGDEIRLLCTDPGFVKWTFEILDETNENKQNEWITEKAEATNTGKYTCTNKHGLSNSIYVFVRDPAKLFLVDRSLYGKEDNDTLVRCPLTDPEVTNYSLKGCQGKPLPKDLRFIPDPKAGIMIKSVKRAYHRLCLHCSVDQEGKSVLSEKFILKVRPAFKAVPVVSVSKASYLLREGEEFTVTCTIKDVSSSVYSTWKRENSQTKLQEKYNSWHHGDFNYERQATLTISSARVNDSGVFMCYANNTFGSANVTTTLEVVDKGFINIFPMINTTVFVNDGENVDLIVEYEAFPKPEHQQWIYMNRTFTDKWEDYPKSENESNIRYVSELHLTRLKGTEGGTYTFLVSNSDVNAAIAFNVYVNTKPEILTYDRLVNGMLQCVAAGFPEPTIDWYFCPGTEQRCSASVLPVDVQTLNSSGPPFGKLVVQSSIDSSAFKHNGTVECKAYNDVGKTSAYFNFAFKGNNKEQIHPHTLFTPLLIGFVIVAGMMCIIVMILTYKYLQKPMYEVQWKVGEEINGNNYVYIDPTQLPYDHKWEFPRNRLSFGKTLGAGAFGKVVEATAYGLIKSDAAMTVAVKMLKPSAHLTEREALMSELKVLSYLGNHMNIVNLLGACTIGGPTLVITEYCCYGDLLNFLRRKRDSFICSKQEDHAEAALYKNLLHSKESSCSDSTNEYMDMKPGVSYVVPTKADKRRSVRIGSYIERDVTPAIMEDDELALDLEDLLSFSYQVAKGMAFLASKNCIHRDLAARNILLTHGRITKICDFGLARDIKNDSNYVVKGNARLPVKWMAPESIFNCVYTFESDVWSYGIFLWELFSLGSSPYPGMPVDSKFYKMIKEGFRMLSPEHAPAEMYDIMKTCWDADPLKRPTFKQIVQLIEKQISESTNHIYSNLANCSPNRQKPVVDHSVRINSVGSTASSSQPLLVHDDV
Chain of PAK6 (human) (Q9NQU5 whole entry, looked up): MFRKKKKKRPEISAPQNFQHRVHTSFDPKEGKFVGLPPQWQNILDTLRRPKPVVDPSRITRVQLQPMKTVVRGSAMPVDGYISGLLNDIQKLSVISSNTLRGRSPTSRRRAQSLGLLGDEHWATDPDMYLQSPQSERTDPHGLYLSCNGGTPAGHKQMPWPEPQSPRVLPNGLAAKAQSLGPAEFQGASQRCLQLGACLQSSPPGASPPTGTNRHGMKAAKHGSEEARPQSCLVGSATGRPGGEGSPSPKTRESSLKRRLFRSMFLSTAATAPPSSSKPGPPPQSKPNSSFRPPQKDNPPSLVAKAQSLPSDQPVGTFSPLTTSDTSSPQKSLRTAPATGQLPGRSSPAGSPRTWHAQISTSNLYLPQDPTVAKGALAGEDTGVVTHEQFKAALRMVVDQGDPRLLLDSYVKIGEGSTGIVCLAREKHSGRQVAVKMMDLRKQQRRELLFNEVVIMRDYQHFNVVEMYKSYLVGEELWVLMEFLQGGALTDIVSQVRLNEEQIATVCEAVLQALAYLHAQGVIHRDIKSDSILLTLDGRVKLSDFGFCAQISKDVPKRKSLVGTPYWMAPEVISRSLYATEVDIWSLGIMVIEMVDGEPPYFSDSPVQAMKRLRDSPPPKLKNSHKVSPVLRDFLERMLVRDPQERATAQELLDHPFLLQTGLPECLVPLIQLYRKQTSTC

**Q.** What does the source list for `O=C(N[C@@H](COc1ccc2[nH]c(=O)[nH]c2c1)c1ccccc1)c1cccn(Cc2ccc(F)c(F)c2)c1=O`?
**A.** residual activity [1]: 115%; residual activity [2]: 107%; residual activity [3]: 95%; residual activity [4]: 113%; residual activity [5]: 115%; residual activity [6]: 110%; residual activity [7]: 102%; residual activity [8]: 121%; residual activity [9]: 105%; residual activity [10]: 98%; residual activity [11]: 96%; residual activity [12]: 102%; residual activity [13]: 98%; residual activity [14]: 100%; residual activity [15]: 109%; residual activity [16]: 69%; residual activity [17]: 108%; residual activity [18]: 98%; residual activity [19]: 99%; residual activity [20]: 99%; residual activity [21]: 100%; residual activity [22]: 99%; residual activity [23]: 104%; residual activity [24]: 106%; residual activity [25]: 101%; residual activity [26]: 112%; residual activity [27]: 101%; residual activity [28]: 97%; residual activity [29]: 96%; residual activity [30]: 106%; residual activity [31]: 110%; residual activity [32]: 111%; residual activity [33]: 103%; residual activity [34]: 116%; residual activity [35]: 106%; residual activity [36]: 113%; residual activity [37]: 111%; residual activity [38]: 102%; residual activity [39]: 98%; residual activity [40]: 101%; residual activity [41]: 100%
